Results on seven compounds are retold here after patent publication US4466980A, “Thiaprostaglandin E1 derivatives, process for production thereof, and pharmaceutical use thereof” (Teijin Limited, priority 1980, dated 1984).

The test system of experiment [1] is blood pressure and heart beat rate of rats. Briefly: hypotensive activity and heart beat rate, intravenous injection in anesthetized rats. The format is in vivo, male wister rats. As to conditions: Rattus norvegicus, i.v.; for ED (10% increase of heart rate): read-out: H-ED10 (dosage causing a 10% increase of the heart rate); for ED (20% lowering of blood pressure): read-out: P-ED20 (dosage causing a 20% lowering of the mean blood pressure). On the procedure: (1) The actions of the thiaprostaglandin E1 derivatives of the invention on the blood pressure and heart beat rate of rats were examined by intravenous injection under anesthesia. Male wister rats weighing about 250 g were used. Urethane (500 mg/kg) and α-chloralose (100 mg/kg) were intraperitoneally administered to the rats. The rats were anesthetized and fixed in place. Each of the test compounds was dissolved in a small amount of ethanol and diluted with physiological saline to adjust the final ethanol concentration to not more than 5%. The solution was intravenously injected into the rats through a catheter inserted into the femoral vein. The blood pressure of the rats was measured by a pressure transducer through a catheter inserted into the carotid artery of the rats. The heart beat rate was determined from the blood pressure pulse. The action of the test compound of the blood pressure was expressed as the dosage (p-ED20, μg/kg) of the test compound which caused a 20% lowering of the mean blood pressure before administration of the compound. The action of the test compound on the heart rate was expressed as the dosage (H-ED10, μg/kg) of the test compound which caused a 10% increase of the heart rate from the heart beat rate before administration of the test compound.

Experiment [2] relates to platelet aggregation. Nature of the experiment: extra vivo inhibitory activity of platelet aggregation after oral administration. The format is in vivo, guinea pigs (Hartley strain). The settings on record: Cavia porcellus; for inhibition at 3 mg/kg: 3 mg/kg p.o.; for inhibition at 10 mg/kg: 10 mg/kg p.o. On the procedure:
The extra vivo platelet aggregation inhibitory activity of the 7-thiaprostaglandin E1 derivatives of the invention were measured by using guinea pigs. A test drug prepared as a 30% ethanol solution of each of the compounds of the invention in ethanol diluted with physiological saline and as a control 30% ethanol solution were orally adminstered in a dose of 1 ml/kg to Hartleystrain guinea pigs having a body weight of 350 to 450 g which had been fasted for 17 hours. 1 hour or 4 hours after the administration of the compound, blood was drawn off by the cardiac puncture using trisodium citrate so that the ratio of the blood to 3.8% trisodium citrate was 9:1. The blood was centrifuged at a speed of 700 rpm for 10 minutes. The upper layer was separated as plateletrich plasma (PRP). The lower layer was further centrifuged at a speed of 2800 rpm for 10 minutes. The upper layer was separated as platelet poor plasma (PPP). 250 microliters of the resulting PRP was taken into an aggregometer cuvette, and incubated at 37° C. for 2 minutes. Then, 25 microliters of a […] ADP disodium solution adjusted by dissolving with 0.1M tris-HCl buffer (ph 8.0) was added. The aggregation curve was recorded for 3 minutes. The maximum degree of aggregation of platelets within this time period was read, and the rate of inhibitor of platelet aggregation was calculated from the following equation. [formula] TC : the transmittance of a control group (to which only the 30% ethanol solution was administered),
TD : the transmittance of a drug administered group.

For another experiment, the system named is ethanol ulcer (stomach). Nature of the experiment: ethanol ulcer test (anti-ulcer action). The format is in vivo, SD-strain rats. On the procedure:
An ethanol ulcer test was carried out by the following processure.
SD-strain rats (body weight 200 to 220 g; 7 weeks old) were fasted for 24 hours, and a solution of each of the test compounds in physiological saline buffered with phosphate buffer at pH 7.5 was orally administered. Thirty minutes after the administration, 75% ethanol was orally administered in a dose of 1 ml/kg. One hour later, the abdomen was incised to isolate the stomach. […] The total of these lengths was defined as the ulcer index. A control group was given physiological saline buffered with phosphate buffer (pH 7.5) and 75% ethanol.

The test system of experiment [3] is blood pressure of conscious rats. Briefly: action on blood pressure of conscious rats, oral. The class given is in vivo, male wister rats. On the procedure:
(2) The thiaprostaglandin E1 derivatives of the invention were orally administered to conscious rats, and their action on the blood pressure was examined.
Male wister rats weighing about 250 g were used as experimental animals. These rat had been fasted for 16 hours before the start of the experiment. A catheter was inserted into the femoral artery of the rats under ether anesthesia, and then the rats were restrained within a Bollman cage. After more than 1 hour from awakening, each of the test compounds was orally administered.
The test compound was dissolved in a small amount of ethanol, and then diluted with water to adjust the final concentration of ethanol to not more than 5%. The mean blood pressure was measured by means of a pressure transducer through the catheter inserted into the femoral artery.

In experiment [4] the test system is blood pressure of DOCA hypertensive rats. Briefly: action on blood pressure of conscious DOCA hypertensive rats, oral. The format is in vivo, male wistar rats. The procedure: (3) The compound (No. 138) of the invention was orally adminstered to DOCA hypertensive rats (induced by deoxycholticosteron acetate) in conscious, and its action on the blood pressure was examined.
Male wistar rats weighing about 160 g were rendered hypertensive. Specifically, one kidney was removed from the rats, and DOCA was subcutaneously administered to the rats in a dose of 10 mg/kg twice a week. While the rats were allowed to drink a 1% aqueous solution of sodium chloride, they were kept for more than 4 weeks to induce hypertension. The average blood pressure was measured in the same way as described in (2) above.

The subject of experiment [5] is platelet aggregation. Nature of the experiment: platelet aggregation inhibiting activity of prior 11-deoxy-7S-prostaglandins E1 (inventors' investigations). The format is cell-based.
The test system of experiment [6] is platelet aggregation. Briefly: in vitro inhibitory activity of platelet aggregation (ADP). The format is cell-based, rabbit (Japanese domestic white male). As to conditions: Oryctolagus cuniculus, rabbit PRP, 10 μM ADP, 37° C., read-out: IC50 (minimum concentration which inhibited more than 50% of platelet aggregation). On the procedure:
The in vitro platelet aggregation imhibiting activity of the compounds of the invention were examined by using rabbits. Blood was withdrawn from the ear vein of Japanese domestic white male rabbits weighing 2.5 to 3.5 kg. A mixture of a 3.8% trisodium citrate solution and the blood in a ratio of 1:9 was centrifuged at a speed of 1000 rpm for 10 minutes. The upper layer was separated as platelet-rich plasma (PRP). The lower layer was further centrifuged at a speed of 2800 rpm for 10 minutes. The upper layer was separated as platelet-poor plasma (PPP). The number of platelets was adjusted to 6×10^5 /μl to 7×10^5 /μl by diluting the PRP with PPP. 25 microliters of the test compounds prepared as shown below was added in an amount of 25 to 250 microliters of PRP after the adjustment, and the mixture was pre-incubated at 37° C. for 2 minutes, and then 10 μM (final) of ADP was added. By using an aggregometer, changes in transmission were recorded.
The drug was dissolved in ethanol to a concentration of 10 mg/ml, and successively diluted with phosphate buffer (pH 7.4) prior to use.
The rate of inhibition of platelet aggregation was determined from the following equation. [formula] To : the transmittance of the system containing the phosphate buffer, T: the transmittance of the sytem to which the test drug was added.
The minimum concentration of the drug which inhibited more than 50% of platelet aggregation was shown as an IC50 value.

[7] abbreviates: Rattus norvegicus, po, 100 μg/kg p.o., read-out: Ulcer inhibiting rate (%).

In brackets after ≈: the same amount, converted by molar mass.

As to `CCCCC[C@H](O)/C=C/[C@H]1[C@H](O)CC(=O)[C@@H]1CCCCCCC(=O)O` [PGE1, prostaglandin E1], in experiment [1], the ED (10% increase of heart rate) is over 10 µg/kg and the ED (20% lowering of blood pressure) was 1.21 µg/kg. Besides, in the experiment on platelet aggregation [2] (1 hr), the inhibition at 3 mg/kg is 0% and the inhibition at 10 mg/kg amounted to 0%. In addition, in the experiment on platelet aggregation [2] (4 hr), the inhibition at 3 mg/kg was 25.9% and the inhibition at 10 mg/kg amounted to 16.9%. The “Ulcer index (mm)” value with ethanol ulcer (stomach) (30 μg/kg p.o.) is given as 26.8 ± 12.5 mm. The “Ulcer index (mm)” value with ethanol ulcer (stomach) (100 μg/kg p.o., ** P < 0.01) is listed as 1.0 ± 1.0 mm. In the experiment with ethanol ulcer (stomach) (Rattus norvegicus, po, 30 μg/kg p.o., read-out: Ulcer inhibiting rate (%)), the inhibition at 0.03 mg/kg was determined as 60.8%. In addition, in the experiment with ethanol ulcer (stomach) (setting [7]), the inhibition at 0.1 mg/kg worked out at 98.5%.

As to `COC(=O)CCCCCS[C@H]1C(=O)C[C@@H](O)[C@@H]1/C=C/[C@@H](O)C1CCCCC1` [Compound 138, 16,17,18,19,20-pentanor-15-cyclohexyl-7-thiaprostaglandin E1 methyl ester], the ED (10% increase of heart rate) in experiment [1] is over 10 µg/kg. For the same compound, in experiment [1], the ED (20% lowering of blood pressure) is 0.68 µg/kg. Also, the inhibition at 3 mg/kg was determined as 64.9% with platelet aggregation [2] (1 hr) and 23.3% with platelet aggregation [2] (4 hr). The inhibition at 10 mg/kg with platelet aggregation [2] (1 hr) is 94.1%; in the experiment with platelet aggregation [2] (4 hr), 50%. Further, the mean blood pressure in experiment [3] (1 mg/kg p.o., 0 min, in mmHg) is 116 + 4; in experiment [3] (1 mg/kg p.o., 10 min), 99 ± 6; in experiment [3] (1 mg/kg p.o., 15 min) it was 114 ± 2; in experiment [3] (1 mg/kg p.o., 30 min), 116 ± 4; in experiment [3] (1 mg/kg p.o., 45 min) it was 119 ± 4; in experiment [3] (1 mg/kg p.o., 60 min) it was 120 ± 4. For the same compound, the mean blood pressure in experiment [3] (1 mg/kg p.o., 90 min) was 118 ± 3; in experiment [3] (1 mg/kg p.o., 120 min), 118 ± 3; in experiment [3] (10 mg/kg p.o., 0 min) it was 118 ± 3; in experiment [3] (10 mg/kg p.o., 10 min) it was 92 ± 9; in experiment [3] (10 mg/kg p.o., 15 min), 95 ± 9; in experiment [3] (10 mg/kg p.o., 30 min) it was 108 ± 6. In addition, the mean blood pressure in experiment [3] (10 mg/kg p.o., 45 min) came out at 111 ± 4; in experiment [3] (10 mg/kg p.o., 60 min), 112 ± 3; in experiment [3] (10 mg/kg p.o., 90 min) it was 114 ± 4; in experiment [3] (10 mg/kg p.o., 120 min) it was 117 ± 4. For the same compound, the “hypotensive action (in words)” value in experiment [3] (p.o., especially 10 mg/kg) is on record as “long-lasting hypotensive action”; in experiment [4] (p.o., hypertensive rats) it was “marked hypotensive action”. Besides, the average blood pressure in experiment [4] (0.1 mg/kg p.o., 0 min) stood at 167 ± 8; in experiment [4] (0.1 mg/kg p.o., 10 min), 149 ± 12; in experiment [4] (0.1 mg/kg p.o., 15 min) it was 156 ± 8; in experiment [4] (0.1 mg/kg p.o., 30 min), 165 ± 7; in experiment [4] (0.1 mg/kg p.o., 45 min), 168 ± 7; in experiment [4] (0.1 mg/kg p.o., 60 min), 171 ± 10. The average blood pressure came to 177 ± 11 in experiment [4] (0.1 mg/kg p.o., 90 min); 182 ± 13 in experiment [4] (0.1 mg/kg p.o., 120 min); 165 ± 14 in experiment [4] (0.3 mg/kg p.o., 0 min); 134 ± 12 in experiment [4] (0.3 mg/kg p.o., 10 min); 141 ± 8 in experiment [4] (0.3 mg/kg p.o., 15 min); 151 ± 7 in experiment [4] (0.3 mg/kg p.o., 30 min). The average blood pressure in experiment [4] (0.3 mg/kg p.o., 45 min) is 161 ± 9; in experiment [4] (0.3 mg/kg p.o., 60 min) it was 169 ± 9; in experiment [4] (0.3 mg/kg p.o., 90 min), 170 ± 12; in experiment [4] (0.3 mg/kg p.o., 120 min) it was 180 ± 10.

`CCCCC[C@H](O)/C=C/[C@H]1CCC(=O)[C@@H]1SCCCCCC(=O)OC`: the “platelet aggregation inhibiting activity (in words)” value in the experiment with platelet aggregation [5] is on record as “very weak”.

Consider `O=C(O)CCSCCC[C@H]1C(=O)C[C@@H](O)[C@@H]1/C=C/[C@@H](O)C1CCCCC1` [Compound 403, 16,17,18,19,20-pentanor-15-cyclohexyl-4-thiaprostaglandin E1], for which the IC50 in the experiment on platelet aggregation [6] is 2.8 µg/mL (≈ 7.28 µM). For the same compound, in the experiment on ethanol ulcer (stomach) (100 μg/kg p.o., ** P < 0.01), the “Ulcer index (mm)” value is recorded as 6.0 ± 3.8 mm. In addition, the inhibition at 0.1 mg/kg with ethanol ulcer (stomach) (setting [7]) came out at 91.2%. Further, in the experiment with ethanol ulcer (stomach) (p.o., Table 6), the “antiulcer action (in words)” value is “nearly the same antiulcer action as prostaglandin E1”.

On to `CCCC(C)C[C@H](O)/C=C/[C@H]1CCC(=O)[C@@H]1SCCCCCC(=O)O` (stereo partly drawn) [11-deoxy-17-methyl-7S-prostaglandin E1], for which the “platelet aggregation inhibiting activity (in words)” value in the experiment on platelet aggregation [5] is given as “very weak”.

Turning to `CCCCC[C@H](O)/C=C/[C@H]1CCC(=O)[C@@H]1SCCCCCC(=O)O` [11-deoxy-7S-prostaglandin E1], the “platelet aggregation inhibiting activity (in words)” value with platelet aggregation [5] was “very weak”.

For the compound `CCCC(C)C[C@H](O)/C=C/[C@H]1CCC(=O)[C@@H]1SCCCCCC(=O)OC` (stereo partly shown), the “platelet aggregation inhibiting activity (in words)” value in the experiment with platelet aggregation [5] is “very weak”.
